Measurements reported in publication PMC5722265, “Leishmanicidal compounds of Nectria pseudotrichia, an endophytic fungus isolated from the plant Caesalpinia echinata (Brazilwood)” (Memórias do Instituto Oswaldo Cruz, 2018).
Converted amounts (≈) assume the structure as drawn. Read-outs that look alike come from different tables or passages of the source.

Experiments:
[1] = test system: intracellular amastigote forms of Leishmania (Viannia) braziliensis; test: Antileishmanial assay on intracellular amastigotes of L. (V.) braziliensis LUC (firefly luciferase reporter) in THP-1 macrophages; type: cell-based; details: for activity against amastigote forms of L. (V.) braziliensis (in words): L. (V.) braziliensis expressing firefly luciferase; for IC50: Leishmania braziliensis, intracellular amastigotes in THP-1 macrophages, luciferase activity, 72 h
Description: Assays with L. (V.) braziliensis - L. (V.) braziliensis (strain MHOM/BR/1994/H3227) promastigotes were maintained in minimum essential culture medium (α-MEM) (Gibco/Brl, Grand Island, NY, USA) supplemented with 10% (v/v) heat inactivated foetal bovine serum (FBS, Cultilab, Campinas, SP, Brazil), […] kanamycin, […] ampicillin, 2 mm L-glutamine, 5 mg/mL hemin, and 5 mm biopterin (Sigma-Aldrich, St. Louis, USA), at pH 7.0 and incubated at 25°C.
For this assay, we used L. (V.) braziliensis LUC expressing firefly luciferase as a reporter gene. The transfection was performed as previously described ([Roy et al. 2000]). Human monocyte-derived macrophage cell line, THP-1, was maintained in RPMI 1640 medium supplemented with 10% FBS and differentiated in the presence of 20 ng/mL phorbol myristate for 72 h at 37°C. Cells were infected with L. (V.) braziliensis LUC promastigotes at a parasite/macrophage ratio of 10:1 for 3 h in a white walled 96-well tissue culture plate. Non-internalised parasites were removed by five washes with HEPES/NaCl buffer (20 mm HEPES, 0.15 M NaCl, 10 mm glucose, pH 7.2). The infected cells were then treated with 1.5-200.0 µg/mL of sample-tests and 0.006-0.8 µM of amphotericin B (positive control). After 72 h, RPMI was aspirated and luciferase activity was assessed by adding 20 µL reconstituted One-Glo™ Luciferase Assay system solution as enzyme substrate, following the manufacturer's instructions (Promega, Madison, WI, USA). Luciferase activity was measured by luminescence detection in a SpectraMax M5 luminometer (Molecular Devices, Sunnyvale, CA, USA) using 1 s integration/well. Non-infected THP-1 macrophages were used as signal background while non-treated infected THP-1 macrophages were used as control for growth comparison. Antileishmanial activity was expressed as the concentration required to inhibit 50% of parasite growth, as calculated by sigmoidal regression analyses using GraphPad Prism (Version 6.0c, GraphPad Software Inc., La Jolla, CA, USA).

[2] = test system: THP-1 cells; test: Toxicity on host THP-1 macrophages, MTT; type: cell-based; details: for IC50: Homo sapiens, read-out: THP-1 IC50; for toxicity to THP-1 cells (in words): concentration range tested
Description: To assess toxicity of the compounds on the host cells, THP-1 macrophages were seeded in 96-well plates at a density of 2 × 10^5 cells per well, differentiated in the presence of 20 ng/mL phorbol myristate for 72 h at 37°C, and treated with 1.5-200.0 µg/mL of the compounds or 1.5-200.0 μM of Amphotericin B. After 72 h treatment with compounds, cell death was estimated using MTT, which is metabolised by viable cells resulting in a purple product that can be quantified using a spectrophotometer (absorbance at 570 nm). The results were calculated from the absorbance measurements using the percentage of cell death in relation to the untreated cell controls.

[3] = test system: Vero cells; test: Cytotoxicity assay using Vero cells, MTT; type: cell-based, African green monkey; details: for IC50: Chlorocebus sabaeus, Vero, 72 h, read-out: Vero IC50; for selectivity index (SI): IC50 Vero cells/IC50 L. (V.) braziliensis; for toxicity to Vero cells (in words): concentration range tested
Description: Cytotoxicity assay using Vero cells - African green monkey kidney cells (Vero) were used as model of normal cells and were provided by Erna Kroon (Federal University of Minas Gerais, Brazil). The cells were maintained in DMEM medium (Sigma-Aldrich), containing 5% FBS (Gibco/Brl), enriched with 1% antibiotic solution (100 IU/mL penicillin and 100 µg/mL streptomycin, Gibco/Brl). Vero cells were inoculated in 96 well plates at 1 × 10^4 cells/well and the plates incubated for 24 h at 37°C. The samples and amphotericin B (positive control) were dissolved in DMSO (Sigma-Aldrich). […] All cell cultures were incubated in a 5% CO2/95% humidified air atmosphere at 37°C for 72 h. Wells with 0.5% v/v DMSO were used as a negative control. All medium and reagents used in the assays were endotoxin free. Cell viability was estimated by measuring the mitochondrial reduction of MTT ([Monks et al. 1991]). The samples were tested in triplicate in two independent experiments. The results were expressed as percentage of viability in relation to the negative control (DMSO, 0.5% v/v), calculated as follows: percentage of cell viability (%) = [(treated mean OD / negative control) x 100] and obtained from two independent experiments performed in triplicate. The IC50 values were calculated by non-linear regression using GraphPad Prism® Version 5.01 software. The selective index (SI) was calculated by dividing IC50 Vero cells/IC50 L. (V.) braziliensis.

[4] = test system: amastigote forms of L. (V.) braziliensis strain MHOM/BR/75/M2903; design: method as in de Morais-Teixeira et al. 2014; details: different time periods of drug exposure (three, five, and seven days); ref de Morais-Teixeira et al. 2014; cited from earlier work
[5] = design: method as in DrugBank Database, DrugBank Version 5.0; details: Experimental property; ref DrugBank Database, DrugBank Version 5.0; cited from earlier work
[6] = test system: Leishmania promastigotes and intracellular amastigotes in macrophages; design: method as in Roy et al. (2014); details: ref Roy et al. (2014); cited from earlier work
[7] = test system: KB cells; design: method as in Anderson et al. 1985; details: human mouth epidermoid carcinoma; ref Anderson et al. 1985; cited from earlier work
[8] = test system: BC-1 human breast cancer cells; design: method as in Anderson et al. 1985; details: ref Anderson et al. 1985; cited from earlier work
[9] = test system: Plasmodium falciparum (3D7); design: method as in Calcul et al. 2013; details: at 25 nM; ref Calcul et al. 2013; cited from earlier work
[10] = test system: A549 cells; design: method as in Calcul et al. 2013; details: at 25 nM; ref Calcul et al. 2013; cited from earlier work
[11] = test system: tumour xenographs; design: method as in Rahier et al. (2015); details: ref Rahier et al. (2015); cited from earlier work
[12] = test system: L. amazonensis promastigotes; design: method as in Brissow et al. 2017; details: ref Brissow et al. 2017; cited from earlier work

Compound	IC50 [1] [µM]	IC50 ([2]; THP-1, MTT, 72 h) [µM]	IC50 ([3]; MTT) [µM]	IC50 [4] [µM]	other results
C=CCCC/C=C(/C(=O)O)[C@H](C)C(=O)O [Compound 3]	> 200	> 200	> 200		activity against amastigote forms of L. (V.) braziliensis (in words) [1]: not active
NC[C@@H]1O[C@H](O[C@H]2[C@@H](O)[C@H](O[C@@H]3[C@@H](O)[C@H](N)C[C@H](N)[C@H]3O[C@H]3O[C@H](CO)[C@@H](O)[C@H](O)[C@H]3N)O[C@@H]2CO)[C@H](N)[C@@H](O)[C@@H]1O [paromomycin]				234 to 344	
N=C(N)c1ccc(OCCCCCOc2ccc(C(=N)N)cc2)cc1 [Pentamidine, pentamidine]					Log P [E] [5]: 4
CC[C@H]1OC(=O)[C@H](C)[C@@H](O[C@H]2C[C@@](C)(OC)[C@@H](O)[C@H](C)O2)[C@H](C)[C@@H](O[C@@H]2O[C@H](C)C[C@H](N(C)C)[C@H]2O)[C@](C)(O)C[C@@H](C)CN(C)[C@H](C)[C@@H](O)[C@]1(C)O [azithromycin]				5.7	
CC(C)[C@H]1CC[C@H]2COC(=O)[C@H]2[C@@H]1/C=C(\CO)C(=O)O [Compound 6, xylaric acid D]	> 200	> 200	> 200		activity against amastigote forms of L. (V.) braziliensis (in words) [1]: activity against L. (V.) braziliensis was lost
C[C@@H]1[C@H](O)[C@@H](C)/C=C/C=C/C=C/C=C/C=C/C=C/C=C/[C@H](O[C@@H]2O[C@H](C)[C@@H](O)[C@H](N)[C@@H]2O)C[C@@H]2O[C@](O)(C[C@@H](O)C[C@@H](O)[C@H](O)CC[C@@H](O)C[C@@H](O)CC(=O)O[C@H]1C)C[C@H](O)[C@H]2C(=O)O [Amphotericin B, reference compound]	0.12	12	18.2	0.02 to 0.06	
C=C1[C@@H](C)[C@H]2[C@H](Cc3ccccc3)NC(=O)[C@]23[C@H](OC(C)=O)/C=C/[C@@](C)(O)C(=O)[C@@H](C)C/C=C/[C@H]3[C@@H]1O [Compound 7, (+)-cytochalasin D]	72.6				IC50 ([2]; THP-1, 72 h): > 200 µM; IC50 [3]: > 200 µM; effect on Leishmania attachment and intracellular amastigote load in macrophages (in words) [6]: reduce the attachment of Leishmania promastigotes and the intracellular amastigote load
CC(=O)O[C@@]1(CO)CC[C@H](C(C)C)[C@H]2C=C(C(=O)O)COC(=O)[C@@H]21 [Compound 1, (+)-(5aS,6R,9S,9aS)-9-(acetyloxy)-9-(hydroxymethyl)-1-oxo-6-(propan-2-yl)-1,3,5a,6,7,8,9,9a-octahydro-2-benzoxepine-4-carboxylic acid]	21.4	> 200	> 200		activity against amastigote forms of L. (V.) braziliensis (in words) [1]: active; toxicity to THP-1 cells (in words) ([2]; MTT): low toxicity; selectivity index (SI) [3]: 9.3; toxicity to Vero cells (in words) ([3]; MTT): low toxicity
CCCCC/C=C(/C(=O)O)[C@H](C)C(=O)O [Compound 4, (+)-piliformic acid]	78.5	> 200	> 200		selectivity index (SI) [3]: 2.5; IC50 KB cells [7]: 13 µg/mL (≈ 60.7 µM); IC50 BC-1 human breast cancer cells [8]: 5 µg/mL (≈ 23.3 µM); activity against Plasmodium falciparum (3D7) (in words) [9]: inactive; activity against A549 cells (in words) [10]: inactive
CCCCCCCCCCCCCCCCOP(=O)([O-])OCC[N+](C)(C)C [miltefosine]				0.8 to 5.4	
CC(C)[C@H]1CC[C@@]2(CO2)[C@H]2C(=O)OCC(C(=O)O)=C[C@H]12 [heptelidic acid]					activity in vivo (in words) [11]: very modest activity in vivo
Meglumine antimoniate				178 to 330	
18-des-hydroxy cytochalasin H					IC50, viability of L. amazonensis promastigotes [12]: 9.2 µg/mL
CC(C)C1CCC2(O)COC(=O)C2C1C=C(CO)C(=O)O (stereo not shown) [Compound 5, hydroheptelidic acid]	24.8	> 200	> 200		activity against amastigote forms of L. (V.) braziliensis (in words) [1]: showed activity; toxicity to THP-1 cells (in words) ([2]; MTT): low toxicity; toxicity to Vero cells (in words) ([3]; MTT): low toxicity
CC(=O)OCCCCC/C=C(/C(=O)O)[C@H](C)C(=O)O [Compound 2, (+)-6′-acetoxy-piliformic acid]	28.3	> 200	> 200		toxicity to THP-1 cells (in words) ([2]; MTT): low toxicity; toxicity to Vero cells (in words) ([3]; MTT): low toxicity
